# Where two headings read alike, the source gives them in different places.
# Experiments:
# [1] = Phase IB/IIA trial M17DOC in mCRPC: docetaxel plasma pharmacokinetics; parameters: species or system human; conditions: in vivo, po
# Method: A multicenter clinical phase IB/IIA study was conducted in mCRPC (M17DOC), wherein ModraDoc006, an oral docetaxel formulation was combined with ritonavir (ModraDoc006/r), in metastasized castration-resistant prostate cancer (mCRPC).
# The study included patients diagnosed with metastasized castration-resistant prostate cancer (mCRPC), dosed in a bi-daily once weekly (BIDW) dosing schedule at 4 dose levels (see table below).
# [2] = Weekly intravenous docetaxel 35 mg/m2 pharmacokinetics (Baker et al. 2004); format: in vivo, human; conditions: 35 mg/m2 in 0.5 h vs oral in patients with solid tumors (not prostate)
# [3] = IV docetaxel AUC in mCRPC vs other tumors (De Vries Schultink et al. meta-analysis); format: in vivo, human
# [4] = weekly docetaxel 35 mg/m2 as 0.5 h intravenous infusion; cited from earlier work
# [5] = every three weeks IV; cited from earlier work
structure (smiles),measurement,setting,value
CC(=O)O[C@@]12CO[C@@H]1C[C@H](O)[C@@]1(C)C(=O)[C@H](O)C3=C(C)[C@@H](OC(=O)[C@H](O)[C@@H](NC(=O)OC(C)(C)C)c4ccccc4)C[C@@](O)([C@@H](OC(=O)c4ccccc4)[C@H]21)C3(C)C [docetaxel],docetaxel clearance in mCRPC patients vs patients with other solid tumors,[1],higher clearance
same,CMAX of intravenous docetaxel relative to oral ModraDoc006/r 30-20/100-100,[2],ten-fold higher
same,ratio of AUCs for IV docetaxel in mCPRC patients vs other tumors,[3]; 1820/3300,55%
same,AUC,"[3]; male, human, in vivo, iv, weekly equivalent, mCRPC, read-out: weekly AUC of IV docetaxel in mCRPC patients (q3w AUC divided by 3)",~600 ng·h/mL
same,AUC,[4],480 ± 410 ng·h/mL
same,CMAX,[4],1930 ± 600 ng/mL
same,q3w AUC of IV docetaxel in mCRPC patients,[5],1820 ng·h/mL

# Reference: US20220071944A1, “Combination Treatment for Solid Tumors Using Docetaxel and a CYP3A Inhibitor” (Modra Pharmaceuticals B.V., priority 2018, published 2022)
